Key:
Format in all cases: cell-based
P2X2R = target: T1, P2X2R (Homo sapiens, UniProt Q9UBL9); assay: Receptor-mediated calcium entrance assay (Calcium Assay), P2X2R; settings: compound at 5 μM, read-out: Percentage of activity remains in the presence of the compound at 5 μM, P2X2R (Calcium Assay)
T1 construct: expressed in transfected cells; host or cells: HEK-293
T1 sequence (Q9UBL9 1-471): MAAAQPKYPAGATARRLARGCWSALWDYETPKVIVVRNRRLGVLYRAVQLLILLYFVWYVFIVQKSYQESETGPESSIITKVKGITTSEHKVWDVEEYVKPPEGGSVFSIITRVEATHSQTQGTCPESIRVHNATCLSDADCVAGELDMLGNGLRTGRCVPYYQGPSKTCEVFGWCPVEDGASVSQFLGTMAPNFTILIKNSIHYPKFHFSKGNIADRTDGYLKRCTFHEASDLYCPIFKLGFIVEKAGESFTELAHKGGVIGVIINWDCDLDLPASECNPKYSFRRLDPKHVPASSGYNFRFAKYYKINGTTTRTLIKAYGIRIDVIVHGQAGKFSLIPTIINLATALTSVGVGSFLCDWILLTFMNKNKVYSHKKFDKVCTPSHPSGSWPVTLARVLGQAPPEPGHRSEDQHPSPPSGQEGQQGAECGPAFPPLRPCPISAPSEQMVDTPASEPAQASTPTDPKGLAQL

[1] = target: T2, Human P2X2 receptor (P2X2R) (Homo sapiens, UniProt Q9UBL9); assay: Yo-Pro-1 uptake assay, P2X2R transfected HEK-293 cells; settings: HEK293, compound at 5 μM, 5 μM ATP stimulus, read-out: Percentage of activity remains in the presence of the compound at 5 μM, P2X2R (Yo-Pro-1 Assay)
T2 construct: expressed in transfected cells; host or cells: HEK-293
T2 sequence (Q9UBL9 1-471): T1 sequence (Q9UBL9 1-471)
Excerpt: (§1) Yo-Pro-1 Iodide (Cat. No Y3603 from Fisher Scientific) is a fluorescent DNA-binding dye with a MW of 629 Da. This method is based upon the Yo-Pro-1 entrance to cells through the dilated or “large pore form” of P2X7R and its binding to intracellular DNA whereby it increases its fluorescence intensity (J. Pharmacol. Exp. Ther. 308, 1053-1061). The dye has an absorption spectrum compatible with excitation at 488 nm by argon laser sources and its emission wavelength is in the range of 515-575 nm. This Yo-Pro-1 uptake was measured in HEK-293 cells transiently transfected with P2X7R (J. Biol. Chem. 290, 7930-7942). In Brief, HEK-293 cells were seeded in growth medium at approximately 20,000 cells/well in a 96-well plate on day 1. Transfection was performed on day 2 using Lipofectamine 2000 with the P2X7R DNA plasmid at the concentration of 1.7 μg/ml. The transfection solution was replaced with the growth medium 4 hours later. Fluorescent assays were conducted on day 4. On day 4, the medium was removed, the cells were washed with phosphate buffered saline (PBS) (Cat. No. MT21040CV from Fisher Scientific). Then, 25 μl of PBS were first loaded to each well followed by 25 μl of various test compounds. The third 25 μl of solution contained a mixture of Yo-Pro-1 and stimulus bzATP (2′(3′)-O-(4-Benzoylbenzoyl)adenosine-5′-triphosphate tri(triethylammonium) salt). The final concentration of Yo-Pro-1 was 2.5 μM and of bzATP 30 μM. Fluorescence increases were measured every 30 minutes in a microplate device with excitation at 475 nm and emission wavelength in the range of 500-550 nm. PPADS (Pyridoxalphosphate-6-azophenyl-2′,4′-disulfonic acid tetrasodium) was used as the positive control. The wells with no test compounds added nor bzATP and only containing PBS and Yo-Pro-1 were served as the negative control (N Contl). The positive control (P Contl) wells were the same as N Contl but contained the stimulus, bzATP in this case.
(§2) Data used for analysis were from microplate readings 1 hour after bzATP stimulation. The result of each well was first normalized by its corresponding base microplate reading. The base microplate reading was the first reading right after all components were added. Then, the negative control signal was subtracted from. In the negative control, the test compound and the stimulus were replaced by PBS. An average of six highest values of the plate (AVG) were considered as 100% and the value of each well was divided by AVG and presented as the relative values in percentages.
Human P2X2 receptor (P2X2R) construct (J. Biol. Chem. 290, 7930-7942) was transiently transfected to HEK-293 cells and the Yo-Pro-1 assay was performed as described above. When 5 μM ATP was used as the stimulus, the elevation of receptor mediated activity can be seen in 10 minutes.

P2X7R = target: T3, P2X7R (Homo sapiens, UniProt Q99572); assay: Yo-Pro-1 uptake assay (Yo-Pro-1 Assay) in HEK-293 cells transiently transfected with P2X7R; settings: for remaining activity at 5 µM: HEK293, compound at 5 μM, 30 μM bzATP stimulus, reading 1 hour after stimulation, transfected HEK-293 cells, read-out: Percentage of activity remains in the presence of the compound at 5 μM, P2X7R (Yo-Pro-1 Assay); for IC50: HEK-293 cells transiently transfected with P2X7R, 30 μM bzATP as stimulus, readings 1 hour after stimulation, estimated from dose-response curves
T3 construct: expressed in transfected cells; host or cells: HEK-293
T3 sequence (Q99572 1-595): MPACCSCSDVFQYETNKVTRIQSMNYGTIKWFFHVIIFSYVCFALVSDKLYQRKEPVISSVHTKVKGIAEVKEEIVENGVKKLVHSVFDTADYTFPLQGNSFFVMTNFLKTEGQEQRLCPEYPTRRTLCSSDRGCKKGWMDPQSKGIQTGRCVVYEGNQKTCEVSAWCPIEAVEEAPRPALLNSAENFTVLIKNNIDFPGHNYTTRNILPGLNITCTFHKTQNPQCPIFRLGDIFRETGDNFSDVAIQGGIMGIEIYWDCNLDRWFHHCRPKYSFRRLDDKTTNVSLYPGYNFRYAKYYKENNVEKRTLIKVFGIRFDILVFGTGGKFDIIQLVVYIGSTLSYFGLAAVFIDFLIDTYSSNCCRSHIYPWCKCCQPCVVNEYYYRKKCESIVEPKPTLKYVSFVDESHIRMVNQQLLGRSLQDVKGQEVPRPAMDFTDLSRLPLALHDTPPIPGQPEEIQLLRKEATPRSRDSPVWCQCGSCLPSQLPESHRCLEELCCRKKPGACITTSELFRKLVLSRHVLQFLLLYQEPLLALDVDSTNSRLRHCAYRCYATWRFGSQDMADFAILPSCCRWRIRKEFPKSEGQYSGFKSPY
Excerpt: as §1, §2
For comparison of the antagonistic effectiveness of the compounds of this invention among P2X receptors, assays were conducted at 5 μM. Among 55 compounds tested, 29 can reduce the P2X7R activity to […] of the normal activity (Table 2).

remaining activity at 5 µM (P2X2R) [%]	remaining activity at 5 µM [1] [%]	remaining activity at 5 µM (P2X7R) [%]	IC50 (P2X7R) [nM]	Compound
78.3	64	12.9	3000	CC(C)(C)OC(=O)N1CCN(c2ccc(S(=O)(=O)N3CCN(C(=O)CCc4ccccc4)CC3)cc2)CC1 [#31]
47.8	79.9	54.3	3800	O=C(CCc1ccccc1)N1CCN(S(=O)(=O)c2ccc(N3CCOCC3)cc2)CC1 [#32]
83.6	60.9	-8.5	400	O=C(CCc1ccccc1)N1CCN(S(=O)(=O)c2ccc(NC3CCCCC3)cc2)CC1 [#33]
65.2	72.4	4.8	2700	O=C(CCc1ccccc1)N1CCN(S(=O)(=O)c2ccc(N3CCCCC3)cc2)CC1 [#34]
43.7	70.6	23.6	3300	O=C(CCc1ccccc1)N1CCN(S(=O)(=O)c2ccc(N3CCCC3)cc2)CC1 [#35]
49.4	61.8	47.3	11500	CC(C)(C)OC(=O)N1CCN(c2ccc(S(=O)(=O)N3CCCC(C(=O)NCCc4ccccc4)C3)cc2)CC1 (stereo not drawn) [#36]
90.3	58.1	82.7	28500	CCOc1ccc(S(=O)(=O)N2CCCC(NC(=O)CCc3ccccc3)C2)cc1 (stereo not drawn) [#37]
52.2	57.6	7.5	900	O=C(CCc1ccccc1)NC1CCCN(S(=O)(=O)c2ccc(N3CCC(Oc4ccccc4)CC3)cc2)C1 (stereo not drawn) [#38]
86.6	66.3	11.1	3900	CC(C)OC1CCN(c2ccc(S(=O)(=O)N3CCCC(NC(=O)CCc4ccccc4)C3)cc2)CC1 (stereo not drawn) [#39]
73.5	69.1	9.1	800	CC1CCN(c2ccc(S(=O)(=O)N3CCCC(NC(=O)CCc4ccccc4)C3)cc2)CC1 (stereo not drawn) [#40]
61.1	61.4	18.3	1800	CC(C)(C)OC(=O)N1CCC(C2CCN(c3ccc(S(=O)(=O)N4CCCC(NC(=O)CCc5ccccc5)C4)cc3)CC2)CC1 (stereo not drawn) [#41]
62.7	59.2	-1.7	900	O=C(CCc1ccccc1)NC1CCCN(S(=O)(=O)c2ccc(N3CCC(C(F)(F)F)CC3)cc2)C1 (stereo not drawn) [#42]
56	71.1	23.5	3000	O=C(CCc1ccccc1)NC1CCCN(S(=O)(=O)c2ccc(F)c(Cl)c2)C1 (stereo not drawn) [#43]
83	61.4	-5.1	100	CC1CCCN(c2ccc(S(=O)(=O)N3CCCC(NC(=O)CCc4ccccc4)C3)cc2)C1 (stereo not drawn) [#44]
49.4	83.3	33.1	9300	O=C(CCc1ccccc1)NC1CCCN(S(=O)(=O)c2ccc(N3CCCCC3)c(Cl)c2)C1 (stereo not drawn) [#45]
71	39.1	-8.6	3800	O=C(CCc1ccccc1)NC1CCCN(S(=O)(=O)c2ccc(N3CCC(F)(F)CC3)cc2)C1 (stereo not drawn) [#46]
65.6	69.7	-7.4	100	CC1CCCCN1c1ccc(S(=O)(=O)N2CCCC(NC(=O)CCc3ccccc3)C2)cc1 (stereo not drawn) [#47]
82.6	55.9	1.4	2600	CC(C)N(C(C)C)S(=O)(=O)c1ccc(N2CCCC(NC(=O)CCc3ccccc3)C2)cc1 (stereo not drawn) [#49]

— patent US20220380310A1, “P2X7R ANTAGONISTS” (priority 2019, published 2022)
